Laboratory results: PMC8646019, “Azvudine is a thymus-homing anti-SARS-CoV-2 drug effective in treating COVID-19 patients” (Signal Transduction and Targeted Therapy, 2021)

Tested on: SARS-CoV-2
Test: SARS-CoV-2 infected rhesus macaques treated with FNC (viral load, blood tests, histology, X-ray)
Assay type: in vivo
Protocol: RM monkeys were used to learn whether FNC could inhibit SARS-CoV-2 in vivo. In this experiment, eight monkeys were first infected with SARS-CoV-2 using the protocol established previously with an infection dose of 10^6 pfu per monkey.[18] Among the eight animals, four were untreated (as vehicle control; two male and two female) and four were treated with FNC (0.07 mg/kg, qd, oral; two male and two female) 12 h post-infection. The treatment continued for 7 days from Day 1 to Day 7. The experiment was terminated on Day 8 after viral infection. Clinical manifestations, blood indications, and viral load in swabs and blood samples was monitored during the course, and organs were examined after euthanasia at 8 dpi. The experimental protocol is shown in Supplementary Fig. 5.
Fig. 3 FNC inhibited SARS-CoV-2 and treated COVID-19 in vivo. Eight RM monkeys were inoculated with SARS-CoV-2, followed by vehicle or FNC treatment 12 h post infection and continued for 7 days (see Materials and methods). […] The regions of interest (ROI) are boxed in white, and their magnified photos are shown below. Scale bars, 500 µm (up) and 20 µm (below). c White blood cells (WBC), neutrophil granulocytes (NG), monocytes (MC), and platelets basically remained stable by FNC after SARS-CoV-2 infection. d FNC increased the percent of lymphocytes, alleviated CRP production, and protected the heart and liver functions. Data are presented as mean ± SEM (n = 4); *p < 0.05, infected monkeys in FNC group vs. infected monkeys in the untreated group, by Mann–Whitney U test. CRP C reaction protein, AST aspartate aminotransferase TEXT PRINTED IN THE PICTURE: (a) FNC: Lung Viral load (copies /g): ND (17031); Lung Viral load (copies /g): ND (17374); Thymus Viral load (copies /g): ND (17017); Thymus Viral load (copies /g): ND (17031); Thymus Viral load (copies /g): ND (17368); Thymus Viral load (copies /g): ND (17374) DOUBTS OF THE COPYIST ABOUT THIS PICTURE: Panel a: the only printed results are "ND" labels over single animal numbers. The red ones (FNC group) are given. The black ND labels of the untreated group (Lung 17032; Thymus 17032, 17041) are left out because no substance was given. / Panel d: 0.083 printed in the CRP and AST plots is taken as a p value and left out.
The rhesus macaques’ experiment was done by following the method described before^1,2. Briefly, healthy rhesus macaques (4 male and 4 female, 3-4 years old) were used for the study. SARS-CoV-2 was from the Center of Diseases Control, Guangdong, China, and amplified in the Vero-E6 cells. Animal groups and experimental schedules were outlined in Fig S4. We inoculated rhesus macaques with 10^6 pfu/ml SARS-CoV-2 intratracheally (0.5ml) and intranasally (0.5ml). FNC (0.07mg/kg, qd, orally) was given 12 h after viral inoculation and continued for 7 days. The animals were monitored daily for physical examination. Chest X-ray radiograph of the anaesthetized monkeys was done with 55-75v and 8-12.5mA with the Mobile digital medical X-ray photography system (MobileCooper, Browiner China).
Quantification of viral genome in swabs and tissue samples was done as described before^1. Viral genome copy in samples were quantified with real time RT-PCR, using TaqMan Fast Virus 1-Step Master Mix (ThermoFisher, US) and conducted on the CFX384 Touch Real-Time PCR Detection System (Biorad, US). Purified RNA of SARS-CoV-2 served as a standard curve. The operation conditions of RT-PCR were set as following: 25℃ for 2min, 50℃ for 15min, 95℃ for 2min, then 40 cycles at 95℃ 5sec and 60℃ 31sec. Primers/probe specific for the NP gene were synthesized based on sequences from China CDC: Target-2-F:GGGGAA […],
By the end of the experiment, major organs of the monkeys were taken and checked with naked eye examination. Tests for blood biochemistry and hematology indexes, including lymphocyte analysis and organ function assays, were done based on previous reports^1,2. […]

[1] = FNC-treated monkeys vs untreated

**Q.** Which results are given for [N-]=[N+]=N[C@]1(CO)O[C@@H](n2ccc(N)nc2=O)[C@@H](F)[C@@H]1O [FNC, 2′-deoxy-2′-β-fluoro-4′-azidocytidine]?
**A.** CK and AST levels [1]: decreased CK and AST levels, though insignificantly; body temperature and body weight changes after SARS-CoV-2 infection [1]: not different; lesions in the lung (HE staining) (RM monkeys, FNC 0.07 mg/kg qd oral vs untreated): reduced the lesions substantially; viral load in nasal swabs, blood, lungs and thymus (RM monkeys, FNC 0.07 mg/kg qd oral, 7 days, vs untreated): significantly reduced viral load; ground-glass opacities in chest X-ray (RM monkeys, FNC 0.07 mg/kg, qd, orally): lessened ground-glass opacities; viral load in the thymus (four virus (+) monkeys treated with FNC, termination of the experiment): negative
